What was measured:
Type in all cases: cell-based
[1] = tested on: Alexa Fluor647 labelled human IgE; assay: Uptake assay: internalization of Alexa Fluor 647 labelled IgE in wild type HepG2 cells (Example 6); settings: equimolar conjugate and AF647 IgE, 2 hours, median cellular AF647 intensity by flow cytometry, normalized to unconjugated parent protein
Description: (§1) The following experiments were performed with HepG2 hepatocellular carcinoma cells, grown in Eagle's Minimal Essential Media (EMEM) supplemented with 10% FBS and penicillin/streptomycin.
(§2) HepG2 cells (25,000) were plated in 96-well plates 48 hours before the experiment was performed. On the day of the experiment, indicated the conjugate was mixed with an equimolar stock of Alexa Fluor647 labelled human IgE (Enzo Life Sciences, BPD-DIA-HE 1) in fresh EMEM as a 600 nM stock. The precomplexed conjugate:IgE mixture was incubated at room temperature for 30 minutes. During the precomplexing step, media from HepG2 was removed, and 40 ul of EMEM with 1/100 Fc Receptor Blocking Solution (Biolegend Human TruStain FcX, 422302) was added. Cells incubated in the receptor blocking solution for 10 minutes while making serial dilutions (1:3) of conjugate:IgE stock solution in EMEM. 40 ul of the conjugate:IgE mixture in EMEM was then added to cells (six dilutions, with final concentrations ranging from 300 nM to 1.23 nM) for 2 hours before washing with DPBS and detaching with 0.25% Trypsin/EDTA. Cells were pelleted in 96-well conical bottom plates, washed once with FACS Buffer with BSA (Rockland Immunochemicals), and resuspended in FACS Buffer with BSA. Uptake of fluorescently labelled IgE was measured by analyzing median cellular AF647 intensity by flow cytometry.
(§3) Cells were incubated with equimolar ratio of conjugate and AF647 IgE at indicated concentrations, with data normalized to unconjugated parent protein (Oma S35HWY57H-LC).

[2] = tested on: Alexa Fluor647 labelled human IgE; assay: Uptake assay: internalization of Alexa Fluor 647 labelled IgE in ASGPR1/2 KO HepG2 cells (Example 6); settings: equimolar conjugate and AF647 IgE, normalized to unconjugated parent protein
Description: as §1, §2, §3

[3] = tested on: LysoLight-labelled human IgE; assay: Lysosomal degradation of LysoLight-labelled IgE in HepG2 cells, live cell imaging (Example 7); settings: equimolar conjugate:LysoLight IgE, area under the curve of deep red fluorescence over three days, normalized to unconjugated parent protein
Description: as §1
HepG2 cells (15,000) were plated in 96-well plates 72 hours before performing the experiment. On the day of the experiment, indicated the conjugate was diluted in fresh EMEM and mixed with an equimolar stock of LysoLight-labelled human IgE (Enzo Life Sciences, BPD-DIA-HE1), at 200 nM of each compound. The precomplexed conjugate:IgE mixture was incubated at room temperature for 30 minutes. During the precomplexing step, media from HepG2 was removed, and 40 ul of EMEM with 1/100 Fc Receptor Blocking Solution (Biolegend Human TruStain FcX, 422302) was added. Cells incubated in the receptor blocking solution for 10 minutes while making serial dilutions (1:3) of conjugate:IgE stock solution in EMEM. 40 ul of the conjugate:IgE mixture in EMEM was then added to cells (five dilutions, with final concentrations ranging from 100 nM to 1.23 nM). Cells were placed in an IncuCyte Live-Cell Analysis System (Sartorius) for long term live cell imaging analysis (10× magnification, 3 images per well). One hour after addition of compound, image acquisition to measure red fluorescence from the LysoLight probe was started, with further Images collected every hour for 72 hours. Fluorescence of the LysoLight probe only occurs when cleaved by lysosomal cathepsin proteases, confirming lysosomal delivery and degradation of target. After 72 hours, mean red fluorescence was measured for each time point, and the area under the curve of fluorescence overtime was used to measure total degradation over the 3-day time period.

HepG2 cells = assay: Externalization of conjugates from a cell following internalization (cycling), high-throughput format (Example 11); settings: 50 nM conjugate 1 hour, stringent washes, Alexa Fluor 647-labelled a-human IgG 1 hour, FACS, normalized to unconjugated parent protein, average of two replicate wells
Description: as §1
The method was also adapted to a high-throughput format. In this assay, 25,000 HepG2 cells were plated in 96-well plates 48 hours before performing the experiment. The day of the experiment, cells were incubated with conjugate at indicated concentrations for 1 hour. Cells were then placed on ice to prevent trafficking/recycling during wash steps, and washed once with DPBS, once with sodium acetate buffer (20 mM, 150 mM NaCl, pH 5.2), once with Earle's Balanced Salt Solution (EBSS) adjusted to pH 2.5, and once again with DPBS, to remove conjugate from media and cell surface. Afterwards, 100 ul of prewarmed (to 37° C.) EMEM with 1 μg/ml of human a-IgG antibody conjugated to Alexa Fluor647 fluorophores was added to cells for 1 hour before washing with DPBS and detaching with 0.25% Trypsin/EDTA. Cells were pelleted in 96-well conical bottom plates, washed once with FACS Buffer with BSA (Rockland Immunochemicals), resuspended FACS Buffer with BSA and median AF647 intensity was analyzed by flow cytometry. The amount of conjugate capable of cycling to the cell surface (being externalized from the cell) and binding to the Alexa Fluor647 labelled α-IgG was measured by analyzing median cellular 647 fluorescence intensity by flow cytometry. […]. Reported values are the average of the values of two replicate wells.

human IgE = assay: Degradation of initial and subsequent dose of target in HepG2 cells (Example 12, Table 30); settings: normalized to unconjugated; for Normalized Fluorescence Post Wash Median Green: after wash, probe-conjugated IgE added for 4 hours, subsequent dose of target; for Normalized Fluorescence Precomplex Median Deep Red: precomplexed equimolar conjugate:IgE (cathepsin-cleavable quenched fluorescent probe) added for 2 hours, initial dose of target
Description: as §1
HepG2 cells (25,000) were plated in 96-well plates 48 hours before performing the experiment. On the day of the experiment, indicated conjugate was diluted in fresh EMEM as a 2× stock, and mixed with an equimolar stock of human IgE (Enzo Life Sciences, BPD-DIA-HE 1) conjugated to a cathepsin-cleavable quenched fluorescent probe. The precomplexed conjugate:IgE mixture was incubated at 37 degrees Celsius for 30 minutes. Media from HepG2 was removed, and conjugate:IgE mixture in EMEM was added to cells for 2 hours. Cells were then placed on ice to prevent trafficking/recycling during wash steps, and washed once with DPBS, once with sodium acetate buffer (20 mM, 150 mM NaCl, pH 5.2), once with Earle's Balanced Salt Solution (EBSS) adjusted to pH 2.5, and once again with DPBS, to remove conjugate from media and cell surface. Afterwards, 100 ul of prewarmed (to 37 degrees Celsius) EMEM with cathepsin-cleavable quenched fluorescent probe-conjugated IgE was added to cells for 4 hours before washing with DPBS and detaching with 0.25% Trypsin/EDTA. Cells were pelleted in 96-well conical bottom plates, washed once with FACS Buffer with BSA (Rockland Immunochemicals), resuspended FACS Buffer with BSA and median 488 and 647 intensity was analyzed by flow cytometry. Delivery of labelled IgE to the lysosome and subsequent cleavage of initial precomplexed IgE was measured by analyzing median cellular 647 intensity, while cleavage of the post wash addition of IgE, which should only be degraded by recycling conjugates which released the first round of precomplexed IgE, was analyzed by median cellular 488 intensity. HepG2 cells were treated with human IgE (Enzo Life Sciences, BPD-DIA-HE1) conjugated to a cathepsin-cleavable quenched deep red (647) fluorescent probe precomplexed to conjugate fortwo hours, then washed, and fresh media with IgE conjugated to a green (488) cathepsin-cleavable fluorescent probe was then added without conjugate. […] Fluorescence values were measured by FACS and normalized to unconjugated parent protein. Reported values are the average of the values of two replicate wells.

recombinant IgE = assay: Degradation of super-stoichiometric levels of target in HepG2 cells (Example 13, Table 31); settings: 1 nM conjugate and 25 nM IgE for three days, (A-B)/C IgE depleted relative to conjugate, average of two replicate wells
Description: as §1
For evaluation of compounds in a high throughput format, 25,000 HepG2 cells were plated in a 96-well plate. The following day, 50 ul of 1 nM conjugate and 25 nM recombinant IgE in EMEM were added to the cells. 50 ul of the initial stock of conjugate:IgE was saved to quantify for an initial time point. Three days later, the media was collected from cells, and both initial and 72 hour time points were quantified for IgE concentration using the MSD assay.
HepG2 cells were incubated in media containing 1 nM conjugate and 25 nM IgE for three days. Concentrations of IgE at beginning and end of experiment were quantified by ELISA-based assay. Molar equivalents of IgE depleted relative to conjugate added are shown, calculated as (A-B)/C, where A is the initial concentration of IgE, B is the concentration of IgE at day three, and C is the concentration of conjugate. Reported values are the average of the values of two replicate wells.

Row | SMILES | Normalized Fluorescence 3.7 nM WT [1] | Normalized Fluorescence 100 nM WT [1] | Normalized Fluorescence 100 nM ASGPR KO [2] | Normalized Fluorescence 3.7 nM [3] | Normalized Fluorescence 100 nM [3] | Normalized Fluorescence (HepG2 cells) | Normalized Fluorescence Post Wash Median Green (human IgE) | Normalized Fluorescence Precomplex Median Deep Red (human IgE) | Average Degradation (Molar equivalents) (recombinant IgE)
1 | COC[C@H]1OC[C@H](Nc2nc(OCCOCCOCCNC(=O)NCCCC(CCCNC(=O)NCCOCCOCCOc3cc(C(F)(F)F)nc(N[C@H]4CO[C@H](COC)[C@H](O)[C@@H]4O)n3)(CCCNC(=O)NCCOCCOCCOc3cc(C(F)(F)F)nc(N[C@H]4CO[C@H](COC)[C@H](O)[C@@H]4O)n3)NC(=O)CCOCCOCCOCCNS(=O)(=O)c3ccc(N4C(=O)C=CC4=O)cc3)cc(C(F)(F)F)n2)[C@@H](O)[C@H]1O [Compound 2309] | 38.9 | 201.6 | 1.1 | 6.7 | 3.1 | 27.1 | 2.5 | 3.0 | 4.1
2 | O=C(CCOCCOCCOCCNS(=O)(=O)c1ccc(N2C(=O)C=CC2=O)cc1)NC(CCCNC(=O)NCCOCCOCCOCc1csc(N[C@H]2CO[C@H](CO)[C@H](O)[C@@H]2O)n1)(CCCNC(=O)NCCOCCOCCOCc1csc(N[C@H]2CO[C@H](CO)[C@H](O)[C@@H]2O)n1)CCCNC(=O)NCCOCCOCCOCc1csc(N[C@H]2CO[C@H](CO)[C@H](O)[C@@H]2O)n1 [Compound 2310] | 30.3 | 127.9 | 1.1 | 4.3 | 2.4 | 16.6 | 2.0 | 2.3 | 4.0
3 | O=C(CCOCCOCCOCCNS(=O)(=O)c1ccc(N2C(=O)C=CC2=O)cc1)NC(CCCNC(=O)NCCOCCOCCCc1ccnc(N[C@H]2CO[C@H](CO)[C@H](O)[C@@H]2O)n1)(CCCNC(=O)NCCOCCOCCCc1ccnc(N[C@H]2CO[C@H](CO)[C@H](O)[C@@H]2O)n1)CCCNC(=O)NCCOCCOCCCc1ccnc(N[C@H]2CO[C@H](CO)[C@H](O)[C@@H]2O)n1 [Compound 2311] | 22.6 | 92.9 | 1.1 | 2.2 | 2.2 | 11.6 | 1.7 | 2.0 | 0.5
4 | CN1CCN(C[C@H]2OC[C@H](Nc3nc(OCCOCCOCCNC(=O)NCCCC(CCCNC(=O)NCCOCCOCCOc4cc(C(F)(F)F)nc(N[C@H]5CO[C@H](CN6CCN(C)CC6)[C@H](O)[C@@H]5O)n4)(CCCNC(=O)NCCOCCOCCOc4cc(C(F)(F)F)nc(N[C@H]5CO[C@H](CN6CCN(C)CC6)[C@H](O)[C@@H]5O)n4)NC(=O)CCOCCOCCOCCNS(=O)(=O)c4ccc(N5C(=O)C=CC5=O)cc4)cc(C(F)(F)F)n3)[C@@H](O)[C@H]2O)CC1 [Compound 2312] | 64.9 | 242.9 | 1.0 | 11.1 | 4.2 | 44.5 | 3.0 | 3.5 | 4.1
5 | CC(=O)N[C@@H]1[C@@H](O)[C@@H](O)[C@@H](CO)O[C@@H]1CCCOCCOCCNC(=O)NCCCC(CCCNC(=O)NCCOCCOCCC[C@H]1O[C@H](CO)[C@H](O)[C@H](O)[C@H]1NC(C)=O)(CCCNC(=O)NCCOCCOCCC[C@H]1O[C@H](CO)[C@H](O)[C@H](O)[C@H]1NC(C)=O)NC(=O)NCOCCOCCOCCNS(=O)(=O)c1ccc(N2C(=O)C=CC2=O)cc1 [Compound 2313] | 89.1 | 259.1 | 1.0 | 13.0 | 4.1 | 36.4 | 3.2 | 3.5 | 7.5
